Test results from publication PMC2694832, “Pharmacokinetics, tissue distribution and mass balance of radiolabeled dihydroartemisinin in male rats” (Malaria Journal, 2009).

Assay: Tissue distribution of [^14C] DHA
Format: in vivo, rats
Conditions: for Distribution of radioactivity / % of total AUC / Half-lives of radioactivity / Tissue AUC of radioactivity / % total recovery: male rats i.v. 3 mg/20 μCi/kg; for % total recovery: all measured tissues
Protocol: Rats treated with a single [^14C] DHA dose of 3 mg/20 μCi/kg intravenously (5 rats per group) were anesthaetized by isofluorane and euthanized via cardiac puncture at 1, 6, 24, 48, 72, 96, and 192 hours, post-dosing. Blood, liver, brain, eyes, adrenals, muscle, lungs, heart, liver, kidneys, spleen, stomach, small intestine, large intestine, perirenal fat and bone marrow samples were removed from each animal by gross dissection. The gastrointestinal tract (GI) was separated into the stomach (oesophagus and stomach), small intestine, and large intestine. Contents were procured from each GI segment. After flushing with saline, these and other tissues were stored. Tissues were rinsed gently, but thoroughly with water to remove remaining traces of blood before storage. Dissecting instruments were also washed between tissue procurements to avoid cross-contamination.
For most of the tissues 20% (w/w) aqueous homogenates of the tissue were prepared. Aqueous homogenates of the faecal and GI content samples were also prepared. Metabolism cages were washed with a solution of 2% Count-off® and the volume was measured. Radioactivity in the plasma samples and in aliquots (approx. 0.02–1.0 ml) of urine and cage washings was determined. The blood cells (primarily erythrocytes), perirenal fat (approx. 0.2 g), bone marrow samples (approx. 0.1 ml), and approximately 300-μl aliquots of the homogenates of faeces, liver, kidneys, heart, brain, stomach and carcass were solubilized with SolvableTM tissue solubilizer (Perkin-Elmer Life and Analytical Sciences, Boston, MA). The homogenates of faeces, stomach content, and intestinal contents were extracted with 50% methanol for 24 hours. Aliquots of blood and pooled urine samples from selected intervals were also analysed for DHA content directly.
Total radioactivity in the collected tissue samples were quantified in duplicate. Weighed tissue aliquots (~0.2 g) were digested overnight in 2 ml of Solvable® tissue solubilizer (Perkin-Elmer Life and Analytical Sciences, Boston, MA) at 50°C. Coloured samples were decolourized by adding a maximum of 0.2 ml of 30% H2O2 for 30–60 minutes. Scintillation cocktail (Hyonic Fluor; Perkin-Elmer Boston. Massachusetts, USA) was then added and radioactivity determined in a Perkin-Elmer Tri-Carb 3100 TR scintillation spectrophotometer (Packard Instrument Co., Downers Grove, Illinois, USA). Faeces and intestinal contents were thoroughly homogenized before taking aliquots. Plasma was also analysed using the HPLC-ECD system to measure the concentration of unchanged DHA, as described by Li et al.

C[C@@H]1CC[C@H]2[C@@H]([14CH3])C(O)O[C@@H]3O[C@@]4(C)CC[C@@H]1[C@]32OO4 (stereo partly drawn) [[^14C] DHA, [16-^14C] DHA]
Distribution of radioactivity (Lungs, 24 hr): 398.52 ng equivalents/tissue gram
Distribution of radioactivity (Lungs, 48 hr): 305.34 ng equivalents/tissue gram
Distribution of radioactivity (Lungs, 72 hr): 303.10 ng equivalents/tissue gram
Distribution of radioactivity (Lungs, 96 hr): 236.70 ng equivalents/tissue gram
Distribution of radioactivity (Lungs, 192 hr): 221.64 ng equivalents/tissue gram
% of total AUC (Lungs): 2.03%
Half-lives of radioactivity (Lungs): 86.19 ± 18.00 h
Tissue AUC of radioactivity (Lungs): 85,916 ng·hr/g
Tissue AUC of radioactivity (Lungs, listed as [^14C]-dihydroartemisinin): 85916 ± 12999 ng·h/g
% of total AUC (Muscle): 0.86%
Half-lives of radioactivity (Muscle): 64.45 ± 13.54 h
Tissue AUC of radioactivity (Muscle): 36371 ± 6994 ng·h/g
Distribution of radioactivity (Plasma, 1 hr): 591.34 ng equivalents/tissue gram
Distribution of radioactivity (Plasma, 6 hr): 540.83 ng equivalents/tissue gram
Distribution of radioactivity (Plasma, 24 hr): 216.03 ng equivalents/tissue gram
Distribution of radioactivity (Plasma, 48 hr): 93.02 ng equivalents/tissue gram
% of total AUC (Plasma): 0.49%
Tissue AUC of radioactivity (Plasma): 20750 ± 1031 ng·h/g
Half-lives of radioactivity (Plasma, listed as [^14C]-dihydroartemisinin): 75.57 ± 7.34 h
Distribution of radioactivity (SI Content, 1 hr): 46426.85 ng equivalents/tissue gram
Distribution of radioactivity (SI Content, 6 hr): 11387.30 ng equivalents/tissue gram
Distribution of radioactivity (SI Content, 24 hr): 2283.61 ng equivalents/tissue gram
Distribution of radioactivity (SI Content, 48 hr): 633.61 ng equivalents/tissue gram
Distribution of radioactivity (SI Content, 72 hr): 575.05 ng equivalents/tissue gram
Distribution of radioactivity (SI Content, 96 hr): 176.57 ng equivalents/tissue gram
Distribution of radioactivity (SI Content, 192 hr): 250.03 ng equivalents/tissue gram
% of total AUC (SI Content): 35.25%
Half-lives of radioactivity (SI Content): 28.73 ± 9.05 h
Tissue AUC of radioactivity (SI Content): 1492988 ± 63053 ng·h/g
Distribution of radioactivity (Small intestine (SI), 1 hr): 8155.95 ng equivalents/tissue gram
Distribution of radioactivity (Small intestine (SI), 6 hr): 3014.58 ng equivalents/tissue gram
Distribution of radioactivity (Small intestine (SI), 24 hr): 821.84 ng equivalents/tissue gram
Distribution of radioactivity (Small intestine (SI), 48 hr): 335.42 ng equivalents/tissue gram
Distribution of radioactivity (Small intestine (SI), 72 hr): 389.72 ng equivalents/tissue gram
Distribution of radioactivity (Small intestine (SI), 96 hr): 235.61 ng equivalents/tissue gram
Distribution of radioactivity (Small intestine (SI), 192 hr): 304.12 ng equivalents/tissue gram
% of total AUC (Small intestine (SI)): 3.10%
Half-lives of radioactivity (Small intestine (SI)): 49.99 ± 34.89 h
Tissue AUC of radioactivity (Small intestine (SI)): 131,264 ng·hr/g
Tissue AUC of radioactivity (Small intestine (SI), listed as [^14C]-dihydroartemisinin): 131264 ± 24631 ng·h/g
Distribution of radioactivity (Spleen, 1 hr): 4,387 ng equivalents/tissue gram
Distribution of radioactivity (Spleen, 1 hr, listed as [^14C]-dihydroartemisinin): 4387.40 ng equivalents/tissue gram
Distribution of radioactivity (Spleen, 6 hr): 3,685 ng equivalents/tissue gram
Distribution of radioactivity (Spleen, 6 hr, listed as [^14C]-dihydroartemisinin): 3684.97 ng equivalents/tissue gram
Distribution of radioactivity (Spleen, 24 hr): 3,061 ng equivalents/tissue gram
Distribution of radioactivity (Spleen, 24 hr, listed as [^14C]-dihydroartemisinin): 3061.40 ng equivalents/tissue gram
Distribution of radioactivity (Spleen, 48 hr): 4,216 ng equivalents/tissue gram
Distribution of radioactivity (Spleen, 48 hr, listed as [^14C]-dihydroartemisinin): 4216.03 ng equivalents/tissue gram
Distribution of radioactivity (Spleen, 72 hr): 4446.65 ng equivalents/tissue gram
Distribution of radioactivity (Spleen, 96 hr): 4464.57 ng equivalents/tissue gram
Distribution of radioactivity (Spleen, 192 hr): 5,170 ng equivalents/tissue gram
Distribution of radioactivity (Spleen, 192 hr, listed as [^14C]-dihydroartemisinin): 5170.22 ng equivalents/tissue gram
% of total AUC (Spleen): 14.58%
Half-lives of radioactivity (Spleen): 114.02 ± 57.67 h
Tissue AUC of radioactivity (Spleen): 617,495 ng·hr/g
Tissue AUC of radioactivity (Spleen, listed as [^14C]-dihydroartemisinin): 617495 ± 410768 ng·h/g
Distribution of radioactivity (Stomach Content, 1 hr): 36.03 ng equivalents/tissue gram
Distribution of radioactivity (Stomach Content, 6 hr): 6289.79 ng equivalents/tissue gram
Distribution of radioactivity (Stomach Content, 24 hr): 22.45 ng equivalents/tissue gram
Distribution of radioactivity (Stomach Content, 48 hr): 98.12 ng equivalents/tissue gram
Distribution of radioactivity (Stomach Content, 72 hr): 18.69 ng equivalents/tissue gram
Distribution of radioactivity (Stomach Content, 96 hr): 11.76 ng equivalents/tissue gram
Distribution of radioactivity (Stomach Content, 192 hr): 343.37 ng equivalents/tissue gram
% of total AUC (Stomach Content): 0.53%
Half-lives of radioactivity (Stomach Content): 16.75 ± 16.30 h
Tissue AUC of radioactivity (Stomach Content): 22362 ± 98089 ng·h/g
Distribution of radioactivity (Stomach, 1 hr): 1366.22 ng equivalents/tissue gram
Distribution of radioactivity (Stomach, 6 hr): 932.33 ng equivalents/tissue gram
Distribution of radioactivity (Stomach, 24 hr): 464.21 ng equivalents/tissue gram
Distribution of radioactivity (Stomach, 48 hr): 342.30 ng equivalents/tissue gram
Distribution of radioactivity (Stomach, 72 hr): 337.48 ng equivalents/tissue gram
Distribution of radioactivity (Stomach, 96 hr): 229.69 ng equivalents/tissue gram
Distribution of radioactivity (Stomach, 192 hr): 218.27 ng equivalents/tissue gram
% of total AUC (Stomach): 1.94%
Half-lives of radioactivity (Stomach): 72.58 ± 12.98 h
Tissue AUC of radioactivity (Stomach): 82125 ± 13428 ng·h/g
Distribution of radioactivity (Testis, 1 hr): 624.14 ng equivalents/tissue gram
Distribution of radioactivity (Testis, 6 hr): 513.53 ng equivalents/tissue gram
Distribution of radioactivity (Testis, 24 hr): 176.47 ng equivalents/tissue gram
Distribution of radioactivity (Testis, 48 hr): 155.78 ng equivalents/tissue gram
Distribution of radioactivity (Testis, 72 hr): 151.29 ng equivalents/tissue gram
Distribution of radioactivity (Testis, 96 hr): 123.54 ng equivalents/tissue gram
Distribution of radioactivity (Testis, 192 hr): 141.04 ng equivalents/tissue gram
Tissue AUC of radioactivity (Testis): 48249 ± 6078 ng·h/g
Half-lives of radioactivity (Testis, listed as [^14C]-dihydroartemisinin): 86.24 ± 40.68 h
Half-lives of radioactivity (Total Amounts line): 69.03 ± 22.13 h
Tissue AUC of radioactivity (Total Amounts line): 4234952.00 ng·h/g
% total recovery (1 hr): 34.57%
% total recovery (6 hr): 34.10%
% total recovery (24 hr): 8.51%
% total recovery (48 hr): 6.50%
% total recovery (72 hr): 6.28%
% total recovery (96 hr): 4.51%
% total recovery (192 hr): ~5.53%
radioactivity in whole blood higher than in plasma (throughout the period measured, rats i.v. 3 mg/20 μCi/kg): 1.8–4.6 fold
total radioactivity found in the content of small intestine (within the first hour after i.v. dosing, rats): 53–86%
